Source: ChEMBL document CHEMBL5291721, “A preclinical secondary pharmacology resource illuminates target-adverse drug reaction associations of marketed drugs” (Nat Commun, 2023)

Columns and labels:
[1] = target: Epidermal growth factor receptor (Homo sapiens, UniProt P00533); assay type: functional
[2] = target: T1, Glucocorticoid receptor (Homo sapiens, UniProt P04150); assay type: functional
T1 sequence (P04150 whole entry): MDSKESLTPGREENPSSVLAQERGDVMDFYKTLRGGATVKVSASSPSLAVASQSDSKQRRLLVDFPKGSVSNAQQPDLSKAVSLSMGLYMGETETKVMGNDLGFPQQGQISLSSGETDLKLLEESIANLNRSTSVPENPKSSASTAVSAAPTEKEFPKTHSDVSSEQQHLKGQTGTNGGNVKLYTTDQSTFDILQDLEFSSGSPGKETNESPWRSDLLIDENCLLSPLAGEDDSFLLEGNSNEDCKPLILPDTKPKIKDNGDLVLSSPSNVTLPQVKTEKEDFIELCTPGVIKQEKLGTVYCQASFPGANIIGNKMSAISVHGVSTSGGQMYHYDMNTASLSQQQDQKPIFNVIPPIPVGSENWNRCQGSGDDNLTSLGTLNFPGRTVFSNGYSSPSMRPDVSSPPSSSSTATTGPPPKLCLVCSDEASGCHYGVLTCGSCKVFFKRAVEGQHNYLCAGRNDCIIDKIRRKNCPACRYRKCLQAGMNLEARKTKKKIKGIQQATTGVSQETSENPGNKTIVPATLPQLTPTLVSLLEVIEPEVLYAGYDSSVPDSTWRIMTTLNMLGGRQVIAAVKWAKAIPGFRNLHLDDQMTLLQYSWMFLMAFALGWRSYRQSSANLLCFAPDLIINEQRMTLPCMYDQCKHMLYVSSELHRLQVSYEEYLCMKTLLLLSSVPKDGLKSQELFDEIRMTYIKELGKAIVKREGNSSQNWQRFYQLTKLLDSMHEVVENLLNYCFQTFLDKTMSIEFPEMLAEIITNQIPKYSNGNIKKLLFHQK

[3] = target: T2, Peroxisome proliferator-activated receptor gamma (Homo sapiens, UniProt P37231); assay type: functional
T2 sequence (P37231 whole entry): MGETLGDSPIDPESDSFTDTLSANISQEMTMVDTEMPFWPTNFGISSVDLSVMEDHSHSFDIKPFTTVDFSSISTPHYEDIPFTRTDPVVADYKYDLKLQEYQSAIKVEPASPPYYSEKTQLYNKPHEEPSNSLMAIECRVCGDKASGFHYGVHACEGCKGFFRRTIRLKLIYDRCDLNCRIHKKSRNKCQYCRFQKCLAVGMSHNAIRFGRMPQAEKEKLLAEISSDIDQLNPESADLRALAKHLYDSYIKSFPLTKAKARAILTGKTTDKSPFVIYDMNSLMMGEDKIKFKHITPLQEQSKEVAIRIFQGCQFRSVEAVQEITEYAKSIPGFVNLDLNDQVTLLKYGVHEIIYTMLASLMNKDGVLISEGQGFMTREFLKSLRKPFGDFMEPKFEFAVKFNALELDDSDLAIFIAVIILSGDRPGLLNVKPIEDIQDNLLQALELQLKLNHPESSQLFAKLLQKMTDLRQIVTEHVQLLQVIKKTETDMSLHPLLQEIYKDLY

[4] = target: T3, Thromboxane A2 receptor (Homo sapiens, UniProt P21731); assay type: functional, cell-based
T3 sequence (P21731 whole entry): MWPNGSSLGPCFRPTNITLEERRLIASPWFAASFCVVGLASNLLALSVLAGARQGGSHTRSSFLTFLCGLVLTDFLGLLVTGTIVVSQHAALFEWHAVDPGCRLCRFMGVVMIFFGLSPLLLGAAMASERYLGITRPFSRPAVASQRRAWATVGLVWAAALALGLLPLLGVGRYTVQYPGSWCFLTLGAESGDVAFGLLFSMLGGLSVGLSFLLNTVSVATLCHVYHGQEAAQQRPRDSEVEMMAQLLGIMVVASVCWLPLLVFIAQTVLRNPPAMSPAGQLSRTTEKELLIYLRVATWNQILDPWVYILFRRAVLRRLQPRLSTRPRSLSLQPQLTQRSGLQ

[5] = target: Beta-2 adrenergic receptor (Homo sapiens, UniProt P07550)
[6] = target: T4, Alpha-2A adrenergic receptor (Homo sapiens, UniProt P08913)
T4 sequence (P08913 whole entry): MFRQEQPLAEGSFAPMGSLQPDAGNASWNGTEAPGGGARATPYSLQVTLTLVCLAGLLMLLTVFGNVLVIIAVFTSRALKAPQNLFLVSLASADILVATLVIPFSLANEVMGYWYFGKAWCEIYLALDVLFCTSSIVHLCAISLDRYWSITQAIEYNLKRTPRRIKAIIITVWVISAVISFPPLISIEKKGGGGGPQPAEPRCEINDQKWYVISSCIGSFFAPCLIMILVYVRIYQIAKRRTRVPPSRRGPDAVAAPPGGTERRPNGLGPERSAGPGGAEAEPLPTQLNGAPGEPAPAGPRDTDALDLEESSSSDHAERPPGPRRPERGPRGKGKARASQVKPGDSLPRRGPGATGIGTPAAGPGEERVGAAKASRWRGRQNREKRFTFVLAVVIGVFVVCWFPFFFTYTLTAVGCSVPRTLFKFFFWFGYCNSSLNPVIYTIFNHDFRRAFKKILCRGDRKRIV

[7] = target: T5, Corticotropin-releasing factor receptor 1 (Homo sapiens, UniProt P34998)
T5 sequence (P34998 whole entry): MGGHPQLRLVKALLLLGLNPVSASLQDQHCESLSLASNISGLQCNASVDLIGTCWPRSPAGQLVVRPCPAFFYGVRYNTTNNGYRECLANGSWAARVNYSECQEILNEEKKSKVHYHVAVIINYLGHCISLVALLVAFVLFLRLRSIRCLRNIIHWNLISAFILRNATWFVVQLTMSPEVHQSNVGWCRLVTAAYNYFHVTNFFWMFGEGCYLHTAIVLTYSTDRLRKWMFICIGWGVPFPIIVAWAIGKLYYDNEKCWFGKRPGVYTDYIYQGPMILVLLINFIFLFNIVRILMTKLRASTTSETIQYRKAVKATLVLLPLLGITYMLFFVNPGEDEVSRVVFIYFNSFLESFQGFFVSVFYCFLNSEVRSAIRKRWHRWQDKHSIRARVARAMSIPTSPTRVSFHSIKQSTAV

[8] = target: Glucagon receptor (Homo sapiens, UniProt P47871)
[9] = target: 5-hydroxytryptamine receptor 2B (Homo sapiens, UniProt P41595)
[10] = target: Cannabinoid receptor 1 (Homo sapiens, UniProt P21554); assay type: functional
Also: assay procedure not described here.

Glucagon receptor, sequence (P47871 whole entry): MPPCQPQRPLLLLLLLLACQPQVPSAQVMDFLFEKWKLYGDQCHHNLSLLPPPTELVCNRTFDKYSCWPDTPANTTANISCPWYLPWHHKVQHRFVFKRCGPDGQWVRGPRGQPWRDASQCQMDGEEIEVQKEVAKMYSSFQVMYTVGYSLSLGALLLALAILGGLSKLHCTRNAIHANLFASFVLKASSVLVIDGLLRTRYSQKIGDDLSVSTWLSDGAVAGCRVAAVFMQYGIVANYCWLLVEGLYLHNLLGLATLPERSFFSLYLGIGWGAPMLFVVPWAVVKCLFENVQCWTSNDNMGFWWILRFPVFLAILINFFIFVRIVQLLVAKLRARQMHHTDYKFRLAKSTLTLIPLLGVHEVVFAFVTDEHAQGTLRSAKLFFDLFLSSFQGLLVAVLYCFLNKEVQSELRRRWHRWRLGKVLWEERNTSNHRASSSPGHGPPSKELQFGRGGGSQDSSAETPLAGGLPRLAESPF
Cannabinoid receptor 1, sequence (P21554 whole entry): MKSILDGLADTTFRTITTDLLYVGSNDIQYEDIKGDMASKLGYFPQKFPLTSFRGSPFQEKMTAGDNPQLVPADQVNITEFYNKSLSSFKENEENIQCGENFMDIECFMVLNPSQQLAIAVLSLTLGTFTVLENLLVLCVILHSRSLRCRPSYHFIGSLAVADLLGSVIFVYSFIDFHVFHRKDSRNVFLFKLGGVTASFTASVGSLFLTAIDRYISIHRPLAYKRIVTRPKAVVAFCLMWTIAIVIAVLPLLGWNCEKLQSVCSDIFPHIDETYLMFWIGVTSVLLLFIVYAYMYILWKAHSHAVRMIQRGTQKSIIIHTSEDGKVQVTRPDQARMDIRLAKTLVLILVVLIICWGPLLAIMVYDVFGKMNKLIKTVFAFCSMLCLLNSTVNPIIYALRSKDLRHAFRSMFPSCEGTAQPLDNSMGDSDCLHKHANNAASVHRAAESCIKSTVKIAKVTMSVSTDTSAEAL
5-hydroxytryptamine receptor 2B, sequence (P41595 whole entry): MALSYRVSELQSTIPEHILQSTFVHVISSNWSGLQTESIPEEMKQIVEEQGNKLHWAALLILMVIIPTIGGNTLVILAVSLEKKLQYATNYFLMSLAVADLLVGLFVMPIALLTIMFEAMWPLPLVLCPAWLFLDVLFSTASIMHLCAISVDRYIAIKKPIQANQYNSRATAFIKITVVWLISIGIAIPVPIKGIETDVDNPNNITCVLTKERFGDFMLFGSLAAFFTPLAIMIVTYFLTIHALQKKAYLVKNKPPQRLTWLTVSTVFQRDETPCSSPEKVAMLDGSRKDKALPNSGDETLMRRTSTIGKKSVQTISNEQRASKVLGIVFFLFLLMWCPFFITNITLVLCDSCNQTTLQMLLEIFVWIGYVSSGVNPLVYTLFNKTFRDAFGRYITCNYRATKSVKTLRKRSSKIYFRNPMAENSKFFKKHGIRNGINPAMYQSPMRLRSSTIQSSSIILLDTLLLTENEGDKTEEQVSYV
Epidermal growth factor receptor, sequence (P00533 whole entry): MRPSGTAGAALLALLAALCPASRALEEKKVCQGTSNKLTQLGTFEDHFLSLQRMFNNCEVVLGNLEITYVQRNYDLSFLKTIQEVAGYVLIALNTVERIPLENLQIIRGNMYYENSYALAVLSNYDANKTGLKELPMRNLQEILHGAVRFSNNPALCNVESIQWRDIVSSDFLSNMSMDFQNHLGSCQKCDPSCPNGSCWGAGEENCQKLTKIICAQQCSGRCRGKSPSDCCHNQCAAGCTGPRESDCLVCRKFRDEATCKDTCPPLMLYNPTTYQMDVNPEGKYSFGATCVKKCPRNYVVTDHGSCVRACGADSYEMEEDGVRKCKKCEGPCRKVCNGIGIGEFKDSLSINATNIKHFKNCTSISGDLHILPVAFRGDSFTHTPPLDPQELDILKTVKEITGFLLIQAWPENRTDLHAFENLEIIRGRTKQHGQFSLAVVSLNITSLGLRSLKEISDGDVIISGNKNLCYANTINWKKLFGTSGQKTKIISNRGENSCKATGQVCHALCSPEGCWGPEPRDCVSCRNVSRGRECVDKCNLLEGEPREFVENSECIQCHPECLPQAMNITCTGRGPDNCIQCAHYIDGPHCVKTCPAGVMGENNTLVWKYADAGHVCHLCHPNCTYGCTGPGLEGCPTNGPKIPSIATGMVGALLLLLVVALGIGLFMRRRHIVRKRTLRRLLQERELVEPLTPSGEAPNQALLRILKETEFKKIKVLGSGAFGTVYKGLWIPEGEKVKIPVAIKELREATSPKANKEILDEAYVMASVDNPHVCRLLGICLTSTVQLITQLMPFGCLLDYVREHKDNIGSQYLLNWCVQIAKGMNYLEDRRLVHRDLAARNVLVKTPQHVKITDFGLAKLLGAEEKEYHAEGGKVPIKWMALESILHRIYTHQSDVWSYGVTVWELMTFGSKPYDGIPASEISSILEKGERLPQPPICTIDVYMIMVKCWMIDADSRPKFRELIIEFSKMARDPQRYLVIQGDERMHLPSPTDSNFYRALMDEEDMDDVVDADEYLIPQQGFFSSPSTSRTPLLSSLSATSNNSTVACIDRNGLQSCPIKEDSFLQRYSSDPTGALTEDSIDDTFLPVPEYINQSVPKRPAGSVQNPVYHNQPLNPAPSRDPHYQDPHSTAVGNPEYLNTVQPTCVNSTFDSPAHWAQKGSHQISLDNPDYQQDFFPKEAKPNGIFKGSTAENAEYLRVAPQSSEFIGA
Beta-2 adrenergic receptor, sequence (P07550 whole entry): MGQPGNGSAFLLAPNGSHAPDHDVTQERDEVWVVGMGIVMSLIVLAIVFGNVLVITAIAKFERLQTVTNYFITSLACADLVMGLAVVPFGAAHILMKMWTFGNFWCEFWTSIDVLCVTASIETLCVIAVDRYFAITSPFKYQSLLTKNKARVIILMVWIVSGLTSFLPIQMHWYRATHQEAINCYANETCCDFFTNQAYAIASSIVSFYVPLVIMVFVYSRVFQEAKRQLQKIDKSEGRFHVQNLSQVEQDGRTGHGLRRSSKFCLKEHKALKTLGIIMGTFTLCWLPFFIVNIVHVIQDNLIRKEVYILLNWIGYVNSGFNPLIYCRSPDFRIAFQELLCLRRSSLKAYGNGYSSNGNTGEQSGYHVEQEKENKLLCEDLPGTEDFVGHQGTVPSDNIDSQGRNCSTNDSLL

Row | SMILES | AC50 [2] | AC50 [3] | AC50 [5] | AC50 [7] | AC50 [8] | AC50 [9] | further results
1 | CCCN(CCc1cccs1)[C@H]1CCc2c(O)cccc2C1 [ROTIGOTINE] | > 30 µM | > 30 µM |  |  |  |  | AC50 [1]: > 30 µM; AC50 [4]: > 30 µM
2 | CCc1oc2ccccc2c1C(=O)c1cc(Br)c(O)c(Br)c1 [BENZBROMARONE] | > 30 µM |  | > 30 µM |  |  |  | AC50 [6]: > 10 µM
3 | Clc1cccc(Cl)c1N=C1NCCN1 [CLONIDINE] |  |  |  | > 30 µM | > 30 µM | > 10 µM | 
4 | NC(=O)c1ncn([C@@H]2O[C@H](CO)[C@@H](O)[C@H]2O)n1 [RIBAVIRIN] |  |  | > 10 µM |  |  |  | 
5 | CC[C@@H](CO)NC(=O)[C@@H]1C=C2c3cccc4[nH]cc(c34)C[C@H]2N(C)C1 [METHYLERGONOVINE] |  |  |  |  |  | 0.0037 µM | 
6 | CC(C)N(CCCCOCC(=O)NS(C)(=O)=O)c1cnc(-c2ccccc2)c(-c2ccccc2)n1 [SELEXIPAG] |  |  | > 30 µM |  |  |  | 
7 | [H]/N=C(\N/C(=N/[H])NCCCCCCNC(=N)NC(=N)Nc1ccc(Cl)cc1)Nc1ccc(Cl)cc1 [CHLORHEXIDINE] |  |  | 6.5 µM |  |  | 0.683 µM | AC50 [6]: > 10 µM
8 | CC(C)C[C@H](CN)CC(=O)O [PREGABALIN] | > 30 µM | > 30 µM | > 30 µM | > 30 µM | > 30 µM |  | AC50 [1]: > 30 µM
9 | CC1(C)O[C@@H]2[C@@H](CO[C@@]3(COS(N)(=O)=O)OC(C)(C)O[C@@H]23)O1 [TOPIRAMATE] |  |  | > 10 µM | > 30 µM | > 30 µM | > 10 µM | AC50 [10]: > 10 µM; AC50 [6]: > 10 µM
10 | Cc1cnc(NC(=O)C2=C(O)c3ccccc3S(=O)(=O)N2C)s1 [MELOXICAM] |  |  | > 10 µM | > 30 µM | > 30 µM | > 10 µM | AC50 [10]: > 10 µM; AC50 [6]: > 10 µM
11 | CN(C)c1cc(CNCC(C)(C)C)c(O)c2c1C[C@H]1C[C@H]3[C@H](N(C)C)C(O)=C(C(N)=O)C(=O)[C@@]3(O)C(O)=C1C2=O [OMADACYCLINE] |  | > 30 µM |  |  |  |  | 
12 | O=C1CN2Cc3c(ccc(Cl)c3Cl)N=C2N1 [ANAGRELIDE] |  |  | > 10 µM |  |  |  | 
13 | CC[C@H]1OC(=O)[C@H](C)[C@@H](O[C@H]2C[C@@](C)(OC)[C@@H](O)[C@H](C)O2)[C@H](C)[C@@H](O[C@@H]2O[C@H](C)C[C@H](N(C)C)[C@H]2O)[C@](C)(O)C[C@@H](C)/C(=N\OCOCCOC)[C@H](C)[C@@H](O)[C@]1(C)O [ROXITHROMYCIN] | > 30 µM | > 30 µM |  |  |  |  | AC50 [1]: > 30 µM
14 | CNC(=O)c1cc(Oc2ccc(NC(=O)Nc3ccc(Cl)c(C(F)(F)F)c3)c(F)c2)ccn1 [REGORAFENIB] | 17 µM |  |  |  |  |  | 
15 | CC(=O)S[C@@H]1CC2=CC(=O)CC[C@]2(C)[C@H]2CC[C@@]3(C)[C@@H](CC[C@@]34CCC(=O)O4)[C@H]12 [SPIRONOLACTONE] | > 30 µM | > 30 µM | > 10 µM | > 30 µM | > 30 µM | > 10 µM | AC50 [1]: > 30 µM; AC50 [6]: > 10 µM
16 | COC(=O)[C@H](c1ccccc1Cl)N1CCc2sccc2C1 [CLOPIDOGREL] | > 30 µM | > 30 µM | > 30 µM | > 30 µM | > 30 µM | > 10 µM | AC50 [10]: > 10 µM; AC50 [6]: > 10 µM

Row | SMILES | AC50 [2] | AC50 [3] | AC50 [5] | AC50 [7] | AC50 [8] | AC50 [9] | further results
17 | Nc1nc(O)c2ncn(COC(CO)CO)c2n1 [GANCICLOVIR] |  |  | > 30 µM |  |  |  | 
18 | C=C(C)[C@@H]1CCC(C)=C[C@H]1c1c(O)cc(CCCCC)cc1O [CANNABIDIOL] | > 30 µM |  |  |  |  |  | AC50 [1]: > 30 µM
19 | CC(=O)Oc1ccccc1C(=O)Nc1ncc([N+](=O)[O-])s1 [NITAZOXANIDE] |  |  | 7.8 µM |  |  |  | 
20 | CCOc1cc(CC(=O)N[C@@H](CC(C)C)c2ccccc2N2CCCCC2)ccc1C(=O)O [REPAGLINIDE] | > 30 µM | > 30 µM |  |  |  |  | 
21 | CN1C[C@H](C(=O)N[C@]2(C)O[C@@]3(O)[C@@H]4CCCN4C(=O)[C@H](Cc4ccccc4)N3C2=O)C[C@@H]2c3cccc4[nH]cc(c34)C[C@H]21 [DIHYDROERGOTAMINE] |  |  |  | > 30 µM | > 30 µM | 0.0638 µM | 
22 | Cn1c(=O)c2[nH]cnc2n(C)c1=O [THEOPHYLLINE] |  |  | > 10 µM | > 30 µM | > 30 µM |  | 
23 | CC(/C=C1\SC(=S)N(CC(=O)O)C1=O)=C\c1ccccc1 |  |  | > 30 µM |  |  |  | 
24 | CC1(C)S[C@@H]2[C@H](NC(=O)[C@H](N)c3ccc(O)cc3)C(=O)N2[C@H]1C(=O)O [AMOXICILLIN] |  |  | > 30 µM | > 30 µM | > 30 µM | > 10 µM | AC50 [10]: > 10 µM; AC50 [6]: > 10 µM
25 | CO/N=C(\C(=O)N[C@@H]1C(=O)N2C(C(=O)O)=C(COC(N)=O)CS[C@H]12)c1ccco1 [CEFUROXIME] |  | > 30 µM |  |  |  |  | 
26 | COc1ccnc(C[S+]([O-])c2nc3ccc(OC(F)F)cc3[nH]2)c1OC (stereo not drawn) [PANTOPRAZOLE] |  |  | > 10 µM | > 30 µM | > 30 µM | > 10 µM | AC50 [6]: > 10 µM
27 | CNC[C@H](O)c1cccc(O)c1 [PHENYLEPHRINE] |  |  |  | > 30 µM | > 30 µM | > 10 µM | AC50 [10]: > 10 µM
28 | O=C(Nc1c(Cl)cncc1Cl)c1ccc(OC(F)F)c(OCC2CC2)c1 [ROFLUMILAST] |  |  | > 30 µM |  |  |  | 
29 | C#Cc1cccc(Nc2ncnc3cc(OCCOC)c(OCCOC)cc23)c1 [ERLOTINIB] | > 30 µM | > 30 µM |  |  |  |  | AC50 [4]: > 30 µM
30 | CC1(C)O[C@@H]2C[C@H]3[C@@H]4C[C@H](F)C5=CC(=O)C=C[C@]5(C)[C@H]4[C@@H](O)C[C@]3(C)[C@]2(C(=O)CO)O1 [FLUNISOLIDE] | > 30 µM | > 30 µM |  |  |  |  | 
31 | CC(=O)/N=c1/sc(S(N)(=O)=O)nn1C [METHAZOLAMIDE] |  |  | > 10 µM |  |  |  | 
32 | CCCCNc1ccc(C(=O)OCCN(C)C)cc1 [TETRACAINE] |  |  | > 10 µM | > 30 µM | > 30 µM | 1.42 µM | AC50 [10]: 0.0006 µM; AC50 [6]: > 10 µM
